Measured values taken from patent US10815274B2, “Immunogenic WT-1 peptides and methods of use thereof” (Memorial Sloan Kettering Cancer Center, priority 2012, dated 2020).
Where a SMILES comes first, the peptide text is derived from it.

Legend:
[1] = system: WT1- autologous APC; assay: Cr51 release assay, cytotoxic CTL response vs unmodified autologous APC; format: cell-based, human; conditions: 50:1 E:T
[2] = system: WT1 peptide loaded autologous APC; assay: Cr51 release assay, cytotoxic CTL response vs peptide loaded autologous APC; format: cell-based, human; conditions: 50:1 E:T
[3] = system: WT1- leukemia; assay: Cr51 release assay, cytotoxic CTL response vs WT1- leukemia; format: cell-based, human; conditions: 50:1 E:T
[4] = system: WT1+ leukemia; assay: Cr51 release assay, cytotoxic CTL response vs WT1+ leukemia expressing restricting HLA allele; format: cell-based, human; conditions: 50:1 E:T
[5] = system: WT1- allo APC with restricting HLA allele; assay: Cr51 release assay, cytotoxic CTL response vs unloaded allogeneic APC sharing restricting HLA allele; format: cell-based, human; conditions: 50:1 E:T
[6] = system: PHA blasts; assay: Cr51 release assay, cytotoxic CTL response vs PHA blasts from the same leukemic patient; format: cell-based, human; conditions: 50:1 E:T, PHA blasts from same patients as the leukemia
[7] = system: WT1+ allo APC with restricting HLA allele loaded with WT1 peptide; assay: Cr51 release assay, cytotoxic CTL response vs peptide loaded allogeneic APC sharing restricting HLA allele (HLA restriction); conditions: 50:1 E:T

SMILES | Cytotoxic CTL response, % vs WT1- autologous APC ([1]; HLA allele A0201) [%] | Cytotoxic CTL response, % vs WT1 peptide loaded autologous APC ([2]; HLA allele A0201) [%] | Cytotoxic CTL response, % vs WT1- leukemia ([3]; HLA allele A0201) [%] | Cytotoxic CTL response, % vs WT1+ Leukemia ([4]; HLA allele A0201) [%] | Cytotoxic CTL response, % vs WT1+ leukemia ([4]; HLA allele A0201) [%] | Cytotoxic CTL response, % vs WT1- allo APC with restricting HLA allele ([5]; HLA allele A0201) [%] | Cytotoxic CTL response, % vs PHA blasts ([6]; HLA allele A0201) [%] | Cytotoxic CTL response, % vs WT1+ allo APC with restricting HLA allele loaded with WT1 peptide ([7]; HLA allele A0201) [%] | also measured
CC(C)C[C@H](NC(=O)[C@H](C)NC(=O)CN)C(=O)N[C@@H](CCCNC(=N)N)C(=O)N[C@@H](CC(N)=O)C(=O)N1CCC[C@H]1C(=O)N[C@H](C(=O)N[C@@H](C)C(=O)N[C@@H](CS)C(=O)O)[C@@H](C)O [SEQ ID NO: 143] (H-GALRNPTAC-OH; N-terminus and C-terminus assumed) |  |  |  |  |  |  |  |  | Cytotoxic CTL response, % vs WT1- autologous APC ([1]; HLA allele B0702): 0%; Cytotoxic CTL response, % vs WT1 peptide loaded autologous APC ([2]; HLA allele B0702): 30%; Cytotoxic CTL response, % vs WT1- leukemia ([3]; HLA allele B0702): 1%; Cytotoxic CTL response, % vs WT1+ Leukemia ([4]; HLA allele B0702): 60%; Cytotoxic CTL response, % vs WT1+ leukemia ([4]; HLA allele B0702): 60%; Cytotoxic CTL response, % vs WT1- allo APC with restricting HLA allele ([5]; HLA allele B0702): 5%; Cytotoxic CTL response, % vs PHA blasts ([6]; HLA allele B0702): 1%; Cytotoxic CTL response, % vs WT1+ allo APC with restricting HLA allele loaded with WT1 peptide ([7]; HLA allele B0702): 22%
CC(C)C[C@H](NC(=O)[C@H](CO)NC(=O)[C@@H]1CCCN1C(=O)[C@@H]1CCCN1C(=O)[C@H](Cc1ccccc1)NC(=O)[C@H](Cc1c[nH]cn1)NC(=O)[C@@H]1CCCN1C(=O)[C@H](CC(C)C)NC(=O)[C@@H]1CCCN1)C(=O)O [SEQ ID NO: 144] (H-PLPHFPPSL-OH; N-terminus and C-terminus assumed) | 0 | 30 | 2 | 22 | 22 | 1 | 1 | 24 | 
C[C@@H](O)[C@H](N)C(=O)N[C@@H](Cc1c[nH]cn1)C(=O)N[C@@H](CO)C(=O)N1CCC[C@H]1C(=O)N[C@H](C(=O)N[C@@H](Cc1c[nH]cn1)C(=O)N1CCC[C@H]1C(=O)N1CCC[C@H]1C(=O)N[C@@H](CCCNC(=N)N)C(=O)O)[C@@H](C)O [SEQ ID NO: 146] (H-THSPTHPPR-OH; N-terminus and C-terminus assumed) | 2 | 50 | 0 | 38 | 38 | 1 | 3 | 21 | Cytotoxic CTL response, % vs WT1- autologous APC ([1]; HLA allele B4001): 0%; Cytotoxic CTL response, % vs WT1 peptide loaded autologous APC ([2]; HLA allele B4001): 45%; Cytotoxic CTL response, % vs WT1- leukemia ([3]; HLA allele B4001): 3%; Cytotoxic CTL response, % vs WT1+ Leukemia ([4]; HLA allele B4001): 65%; Cytotoxic CTL response, % vs WT1+ leukemia ([4]; HLA allele B4001): 65%; Cytotoxic CTL response, % vs WT1- allo APC with restricting HLA allele ([5]; HLA allele B4001): 0%; Cytotoxic CTL response, % vs PHA blasts ([6]; HLA allele B4001): 5%; Cytotoxic CTL response, % vs WT1+ allo APC with restricting HLA allele loaded with WT1 peptide ([7]; HLA allele B4001): 31%
CC(C)C[C@H](NC(=O)[C@@H](N)CCCCN)C(=O)NCC(=O)N[C@@H](C)C(=O)N[C@@H](C)C(=O)N[C@@H](CCC(=O)O)C(=O)N[C@@H](C)C(=O)N[C@@H](CO)C(=O)N[C@@H](C)C(=O)O [SEQ ID NO: 150] (H-KLGAAEASA-OH; N-terminus and C-terminus assumed) | 3 | 41 | 10 | 37 | 37 | 2 | 8 | 22 | 
